Results as given in patent publication EP3970494A1 (priority 2020, dated 2022).

How the values were obtained:
Test in all cases: microbe, parasite or virus in culture
Type in all cases: cell-based
[1] = test system: Fusarium culmorum; details: 168 h
[2] = test system: Phytophthora infestans; details: 168 h, read-out: Fungal growth at 31 ppm (%) PHYTIN
[3] = test system: Septoria tritici; details: Zymoseptoria tritici, 168 h

Row | Structure (SMILES) | activity at 31 ppm [1] [%] | activity at 31 ppm [2] [%] | activity at 31 ppm [3] [%]
1 | CNC(=O)/C(=N/OC)c1cccc(C)c1CO/N=C(\C)c1ncsc1C(F)(F)F [Example 41] | 9 | 0 | 2
2 | CO/N=C(/C(=O)OC)c1cccc(C)c1CO/N=C(\C)c1cc(C#N)cc(Cl)n1 [Example 64] | – | 21 | 17
3 | CNC(=O)/C(=N/OC)c1cccc(C)c1CO/N=C(\C)c1ncccc1C(F)F [Example 33] | 11 | 14 | 4
4 | CNC(=O)/C(=N/OC)c1cccc(C)c1CO/N=C(\C)c1cc(/C(C)=N/OC)ccn1 [Example 30, (2E)-2-Methoxyimino-2-[2-[[(E)-1-[4-[(E)-N-methoxy-C-methyl-carbonimidoyl]-2-pyridyl]ethylideneamino]oxymethyl]-3-methyl-phenyl]-N-methyl-acetamide] | 10 | 0 | 2
5 | CO/N=C(/C(=O)OC)c1cccc(C)c1CO/N=C(\C)c1cc(C(F)(F)F)ccn1 [Example 4, Methyl (2E)-2-methoxyimino-2-[3-methyl-2-[[(E)-1-[4-(trifluoromethyl)-2-pyridyl]ethylideneamino]oxymethyl]phenyl]acetate] | 10 | – | 11
6 | CNC(=O)/C(=N/OC)c1cccc(C)c1CO/N=C(\C)c1ncnc(Cl)c1F [Example 108] | 8 | 0 | 0
7 | CO/N=C(/C(=O)OC)c1cccc(C)c1CO/N=C(\C)c1cccc(C(F)F)n1 [Example 9] | – | 5 | 4
8 | CNC(=O)/C(=N/OC)c1cccc(C)c1CO/N=C(\C)c1cccc(SC)n1 [Example 93] | 17 | 0 | 13
9 | CO/N=C(/C(=O)OC)c1cccc(C)c1CO/N=C(\C)c1cc(C(F)(F)F)nc(C)n1 [Example 57] | 12 | 2 | 14
10 | CNC(=O)/C(=N/OC)c1cccc(C)c1CO/N=C(/c1cc(C(F)(F)F)ccn1)C1CC1 [Example 70, (2E)-2-[2-[[(E)-[cyclopropyl-[4-(trifluoromethyl)-2-pyridyl]methylene]amino]oxymethyl]-3-methyl-phenyl]-2-methoxyimino-N-methyl-acetamide] | 12 | 0 | 0
11 | CO/N=C(/C(=O)OC)c1cccc(C)c1CO/N=C(\C)c1cc(C(F)(F)F)ncn1 [Example 113, Methyl (2E)-2-methoxyimino-2-[3-methyl-2-[[(E)-1-[6-(trifluoromethyl)pyrimidin-4-yl]ethylideneamino]oxymethyl]phenyl]acetate] | 1 | 0 | 0
12 | CO/N=C(/C(=O)OC)c1cccc(C)c1CO/N=C(\C)c1ncccc1F [Example 74] | – | 0 | 21
13 | CO/N=C(/C(=O)OC)c1cccc(C)c1CO/N=C(\C)c1cc(C(F)F)ccn1 [Example 34] | 10 | 1 | 0
14 | CO/N=C(/C(=O)OC)c1cccc(C)c1CO/N=C(\C)c1cccc(F)n1 [Example 106] | – | 0 | 13
15 | CO/N=C(/C(=O)OC)c1cccc(C)c1CO/N=C(\C)c1cc(C#N)ccn1 [Example 54] | 14 | 2 | 4
16 | CO/N=C(/C(=O)OC)c1cccc(C)c1CO/N=C(/c1cc(C(F)(F)F)ccn1)C1CC1 [Example 72, Methyl (2E)-2-[2-[[(E)-[cyclopropyl-[4-(trifluoromethyl)-2-pyridyl]methylene]amino]-oxymethyl]-3-methyl-phenyl]-2-methoxyimino-acetate] | 14 | 6 | 4

Row | Structure (SMILES) | activity at 31 ppm [1] [%] | activity at 31 ppm [2] [%] | activity at 31 ppm [3] [%]
17 | CO/N=C(/C(=O)OC)c1cccc(C)c1CO/N=C(\C)c1cc(C(F)(F)F)cc(C)n1 [Example 46] | 1 | 0 | 0
18 | CNC(=O)/C(=N/OC)c1cccc(C)c1CO/N=C(\C)c1cc(C(F)(F)F)ccn1 [Example 5, (2E)-2-methoxyimino-N-methyl-2-[3-methyl-2-[[(E)-1-[4-(trifluoromethyl)-2-pyridyl]-ethylideneamino]oxymethyl]phenyl]acetamide] | 8 | 20 | 19
19 | CO/N=C(/C(=O)OC)c1cccc(C)c1CO/N=C(\C)c1cncc(C(F)(F)F)c1 [Example 84, methyl (2E)-2-methoxyimino-2-[3-methyl-2-[[(E)-1-[5-(trifluoromethyl)-3-pyridyl]ethylideneamino]oxymethyl]phenyl]acetate] | 12 | 0 | 1
20 | CO/N=C(\C)c1ccnc(/C(C)=N/OCc2c(C)cccc2/C(=N\OC)C(=O)OC)c1 [Example 29, Methyl (2E)-2-methoxyimino-2-[2-[[(E)-1-[4-[(E)-N-methoxy-C-methyl-carbonimidoyl]-2-pyridyl]ethylideneamino]oxymethyl]-3-methyl-phenyl]acetate] | 12 | 1 | 0
21 | CO/N=C(/C(=O)OC)c1cccc(C)c1CO/N=C(\C)c1cc(C)ccn1 [Example 25] | – | 0 | 0
22 | CNC(=O)/C(=N/OC)c1cccc(C)c1CO/N=C(\C)c1cc(C#N)ccn1 [Example 55] | 12 | 0 | 8
23 | CO/N=C(/C(=O)OC)c1cccc(C)c1CO/N=C(\C)c1cccnc1 [Example 131] | – | 0 | 17
24 | CNC(=O)/C(=N/OC)c1cccc(C)c1CO/N=C(\C)c1cccc(C(F)F)n1 [Example 10] | 9 | 0 | 2
25 | CNC(=O)/C(=N/OC)c1cccc(C)c1CO/N=C(\C)c1cccc(C(F)(F)F)n1 [Example 2] | 7 | 18 | 12
26 | CNC(=O)/C(=N/OC)c1cccc(C)c1CO/N=C(\C)c1cnc(Cl)c(Cl)c1 [Example 88] | 14 | 0 | 9
27 | CO/N=C(/C(=O)OC)c1cccc(C)c1CO/N=C(\C)c1cnc(Cl)c(Cl)c1 [Example 87] | 17 | 0 | 1
28 | CO/N=C(/C(=O)OC)c1cccc(C)c1CO/N=C(\C)c1ncccc1C(F)F [Example 24] | – | 18 | 0
29 | CO/N=C(/C(=O)OC)c1cccc(C)c1CO/N=C(\C)c1cccc(C)n1 [Example 65] | – | 1 | 0
30 | CO/N=C(/C(=O)OC)c1cccc(C)c1CO/N=C(\C)c1ncccc1C(F)(F)F [Example 27, Methyl (2E)-2-methoxyimino-2-[3-methyl-2-[[(E)-1-[3-(trifluoromethyl)-2-pyridyl]-ethylideneamino]oxymethyl]phenyl]acetate] | – | – | 5
31 | CO/N=C(/C(=O)OC)c1cccc(C)c1CO/N=C(\C)c1ccnc(C(F)(F)F)c1 [Example 47] | 8 | 0 | 0
